Results from patent publication US11873354B2, “Photobase generator, compound, photoreactive composition, and reaction product” (Tokyo University of Science Foundation, priority 2019, dated 2024).
Entries after “also recorded” stand apart in the source; their conditions may differ.

Assays:
Assay type in all cases: physicochemical
[1] = Color reaction experiment of phenol red (basicity, UV-Vis); conditions: for peak showing basicity near 570 nm: methanol solution with phenol red, UV-Vis
Experimental: Next, it was confirmed that 2-methyl-2-imidazoline (2MI), which is generated by light irradiation to the compound (1)-2, is a stronger base than cyclohexylamine (CyA), which is an aliphatic amine, by a color reaction experiment of phenol red. First, 2MI, CyA and diazabicycloundecene (DBU) were prepared as bases, and 1.5 mL of methanol solution, in which the concentration was prepared at 2.0×10^−5 mol/L, was added to 1.5 mL of a methanol solution in which each base was dissolved. The basicity of each base was evaluated by measuring the UV-Vis spectrum of each of the solution.

[2] = Preservation stability of liquid mixture with base-reactive compound (9)-301 (Test Examples 3, 4); conditions: with (9)-301 in methanol, dark place, 25° C., 6 days
Experimental: A base-reactive compound (9)-301 (0.10 g) as shown below, the compound (1)-1 (0.012 g, 8 molar % with respect to the methoxy group in the base-reactive compound), and methanol (0.51 g) were added in a glass bottle to prepare a liquid mixture.
The liquid mixture was stored in a dark place at 25° C. for 6 days. After storage for 6 days, the glass bottle was shaken or inverted to confirm that the liquid mixture in the glass bottle was liquid.
The base-reactive compound (9)-301 (0.10 g), the compound (2)-1 (0.013 g, 8 molar % with respect to the methoxy group in the base-reactive compound), and methanol (0.50 g) were added in a glass bottle to prepare a liquid mixture.
The liquid mixture was stored in a dark place at 25° C. for 4 days. After storage for 4 days, the glass bottle was shaken or inverted to confirm that the liquid mixture in the glass bottle was gelled.

[3] = Absorbance of compound in methanol under light irradiation (Test Examples 1, 2, 7, 8); conditions: methanol solution; for molar absorption coefficient ε313: 313 nm; for molar absorption coefficient ε365: 365 nm
Experimental: (§1) The above-obtained compound (1)-1 was dissolved in methanol so as to have a concentration of 2.5×10^−5 mol/L. Then, using an LED lamp, the illuminance was set to 50 mW/cm^2, the exposure dose was set to 0, 50, 150 or 300 mJ/cm^2, and the obtained methanol solution was irradiated with light having a wavelength of 365 nm. Then, the absorbance of the compound (1)-1 was measured.
as §1, with “a mercury xenon” for “an LED”, “100” for “150”, “280” for “300”, “313” for “365”
as §1, with “(1)-3” for “(1)-1”, “1.5×10^−5” for “2.5×10^−5”, “100, 200” for “150”, “350” for “300”, “measured. In Test Example 7, the molar absorption coefficient was ε365=1.2×10^4 L/(mol cm).” for “measured.”
The above-obtained compound (1)-3 was dissolved in methanol so as to have a concentration of 1.5×10^−5 mol/L. Then, using a mercury xenon lamp, the illuminance was set to 10 mW/cm^2, the exposure dose was set to 0, 50, 100, 200 or 350 mJ/cm^2, and the obtained methanol solution was irradiated with light having a wavelength of 313 nm. Then, the absorbance of the compound (1)-3 was measured. In Test Example 8, the molar absorption coefficient was ε313=2.8×10^4 L/(mol cm).

[4] = pH test paper after irradiation of aqueous solution; conditions: 365 nm
Solubility test = conditions: chloroform, dimethyl sulfoxide and the like; compared with compound (1)-2

With `CC1=NCCN1` [Compound 2MI, 2-methyl-2-imidazoline] the relative basicity ([1]; from peak intensity near 570 nm) was “weaker than that of DBU; also recorded: stronger than that of CyA” and the “peak showing basicity near 570 nm” value [1] was “a peak showing basicity appeared near 570 nm”.
With `CN(C)C(=NC(=O)/C=C/c1ccccc1O)N(C)C` [Compound (1)-1] the “state of liquid mixture after storage” value [2] was “liquid”, the “molar absorption coefficient ε313” value [3] was 16000 L/mol/cm and the “molar absorption coefficient ε365” value [3] was 3100 L/mol/cm.
With `CC1=NCCN1C(=O)/C=C/c1ccccc1O` [Compound (1)-2] the “pH test paper after light irradiation” value [4] was “discolored to the basic side”.
In the case of `CC1=NCCN1C(=O)/C=C/c1cc(C(C)(C)C)cc(C(C)(C)C)c1O` [Compound (1)-3], the “molar absorption coefficient ε313” value [3] is reported as 28000 L/mol/cm, the “molar absorption coefficient ε365” value [3] is reported as 12000 L/mol/cm and the solubility (Solubility test) is reported as “improved in solubility”.
In the case of `NC1CCCCC1` [CyA, cyclohexylamine], the “peak showing basicity near 570 nm” value [1] is reported as “no peak showing basicity appeared near 570 nm”.
With `C1CCC2=NCCCN2CC1` [DBU, diazabicycloundecene] the “peak showing basicity near 570 nm” value [1] was “a peak showing basicity appeared near 570 nm”.
